Assay results as given in patent US7776907B2, “Methods for the treatment and management of macular degeneration using cyclopropyl-N-{2-[(1S)-1-(3-ethoxy-4-methoxyphenyl)-2-(methylsulfonyl)ethyl]-3-oxoisoindoline-4-yl}carboxamide” (Celgene Corporation, priority 2002, dated 2010).

Assays:
[1] = system: patients with macular degeneration; test: Clinical study in patients with macular degeneration, adjuvant to photodynamic therapy with verteporfin; assay type: in vivo, human; conditions: about 20 mg/day as adjuvant to verteporfin photodynamic therapy for 20 weeks
Protocol: Selective cytokine inhibitory drugs of the invention are administered in an amount of about 20 to about 1,200 mg per day to patients with macular degeneration. In a specific embodiment, clinical studies are performed with forty patients with macular degeneration, who are divided into two groups. The first group receives conventional treatment for closing the leaking choroidal vessels (characteristic of this disease) by photodynamic therapy with verteporfin. Ophthalmol 1999 (117): 1329-1345. The second group receives the same conventional therapy with verteporfin and (+)-2-[1-(3-ethoxy-4 methoxy-phenyl)-2-methylsulfonylethyl]-4 acetylaminoisoindoline 1,3-dione in an amount of about 20 mg/day as an adjuvant for 20 weeks.
However, the first group without (+)-2-[1-(3-ethoxy-4 methoxyphenyl)-2-methylsulfonylethyl]-4 acetylaminoisoindoline 1,3-dione experiences progressive reperfusion of the ablated vessels several weeks after treatment. Progressive visual loss follows which requires the photodynamic therapy to be repeated.

MD = conditions: cited from earlier work
patients with MD = conditions: intravitreal injection, one-year period, randomized trial; cited from earlier work
laser-induced CNVM = conditions: intravitreal injection, monkeys; cited from earlier work
[2] = animal models; cited from earlier work
TNF-α production = test: In vitro pharmacology studies: inhibition of TNF-α production following LPS-stimulation of human PBMC and human whole blood; assay type: cell-based; conditions: compared with thalidomide
Description: One of the biological effects typically exerted by selective cytokine inhibitory drugs is the reduction of synthesis of TNF-α. Specific selective cytokine inhibitory drugs enhance the degradation of TNF-α mRNA. TNF-α may play a pathological role in macular degeneration.
In a specific embodiment, the pharmacological properties of 3-(3,4-dimethoxy-phenyl)-3-(1-oxo-1,3-dihydro-isoindol-2-yl)-propionamide are characterized in in vitro studies. Studies examine the effects of the compound on the production of various cytokines. Inhibition of TNF-α production following LPS-stimulation of human PBMC and human whole blood by the compound is investigated in vitro. […] The pharmacological effects of 3-(3,4-dimethoxy-phenyl)-3-(1-oxo-1,3-dihydro-isoindol-2-yl)-propionamide may derive from its action as an inhibitor of the generation of inflammatory cytokines.

With CCOc1cc(C(CS(C)(=O)=O)N2C(=O)c3cccc(NC(C)=O)c3C2=O)ccc1OC (single isomer, unassigned; (+)) [(+)-2-[1-(3-ethoxy-4 methoxyphenyl)-2-methylsulfonylethyl]-4 acetylaminoisoindoline 1,3-dione] as the compound, how does the “effect on neovascular cascade / duration of effects of photodynamic therapy” value [1] read?
Its value is “neovascular cascade is sufficiently hindered”.

With interferon-α as the compound, how does the “efficacy at treating MD” value (MD; clinical trial, Arch. Ophthalmol. 115:865-72 (1997)) read?
Its value is “ineffective at treating MD”.

And the adverse effects (MD; human, in vivo)?
The adverse effects was “high rate of adverse effects”.

What does the source list for C[C@]12C=CC(=O)C=C1CC[C@H]1[C@@H]3C[C@@H](O)[C@](O)(C(=O)CO)[C@@]3(C)C[C@H](O)[C@@]12F [triamcinolone]?
prevention of severe visual loss (patients with MD): fails to prevent severe visual loss; growth of laser-induced CNVM (laser-induced CNVM): inhibits the growth of laser-induced CNVM

For verteporfin, which accumulation in tissue [2] is on record?
The accumulation in tissue was “also accumulates in the retina”.

For COc1ccc(C(CC(N)=O)N2Cc3ccccc3C2=O)cc1OC (stereo not shown) [3-(3,4-Dimethoxy-phenyl)-3-(1-oxo-1,3-dihydro-isoindol-2-yl)-propionamide], which “pharmacological activity profile, potency relative to thalidomide” value (TNF-α production) is on record?
The value was “five to fifty times more potent than thalidomide”.
